The structures appear in SMILES notation. Several values for one entry are separate records, joined by “and”; a condition that tells them apart may be missing. Identical values can stand only once.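 Where inhibition never reached the appropriate level, the endpoint shown equals the highest concentration tested. Otherwise, values were interpolated linearly from a five-concentration, 48-hour dose response in 96-well plates. GI50 is the concentration that inhibits growth by half. TGI denotes the concentration required for complete inhibition of growth.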 *1 amine or outer side, *2 acyl side, *3 side chain or, on linkers, in order; H or OH if unused. Where a SMILES comes first, the peptide text is derived from it. Bridges are numbered along the chain shown (N, C = ends). [ ]: non-standard residue; d: D form. ξ: configuration not given here. X4 = CCC(C)C(N[*:1])C(O)CC(=O)O[C@H](C(=O)C(C)C(=O)[*:2])C(C)C; NMeY = CN[C@@H](Cc1ccc(O)cc1)C(=O)O; X9 = O=C([C@@H]1CC(O)CN1[*:1])[*:2]; ξNMeL = CNC(CC(C)C)C(=O)O; ξT = CC(O)C(N)C(=O)O Where only a bound is given, the exact number is not on record here.

Among the test systems are A498 renal; A549 NSCLC; ACHN renal; OVCAR-8 ovarian; SR leukemia; TK-10 renal; U251 CNS; UACC-62 melanoma; UO-31 renal.
Experiment in all cases: NCI anticancer screen, dose series, 48 h

For the compound `C/C(=N\NC(=S)N(C)C)c1ncc[nH]1`, the TGI with A498 renal is 16.7 µM; with A549 NSCLC, more than 100 µM; in the assay with ACHN renal, 31.4 µM; with OVCAR-8 ovarian, more than 100 µM; with SR leukemia, 7.52 µM; with TK-10 renal, more than 100 µM. The values for the TGI in the assay on U251 CNS, with UACC-62 melanoma and in the assay with UO-31 renal were 5.22 µM, 7.67 µM and 7.31 µM, respectively.
For the compound `CCC(C)C1NC(=O)C(NC(=O)C(CC(C)C)N(C)C(=O)[C@@H]2CC(O)CN2)C(C)OC(=O)[C@H](Cc2ccc(OC)cc2)N(C)C(=O)[C@@H]2CCCN2C(=O)[C@H](CC(C)C)NC(=O)C(C)C(=O)[C@H](C(C)C)OC(=O)CC1O` (stereo partly drawn) (H-[X9][ξNMeL][ξT][X4]LP[NMeY](Me); ester 3-C), the GI50 was 0.283 µM in the assay with A498 renal; 0.0561 µM in the assay on ACHN renal; 0.0238 µM in the assay on OVCAR-8 ovarian; 0.0873 µM with TK-10 renal; 0.711 µM in the assay on UO-31 renal. The TGI is 0.628 µM and 2.45 µM in the assay with A498 renal; 2.02 µM and 1 µM in the assay with A549 NSCLC; 1.01 µM and 1.9 µM in the assay on ACHN renal; 0.759 µM and 1.06 µM in the assay on OVCAR-8 ovarian; more than 100 µM in the assay with SR leukemia; 1.25 µM and 7.31 µM with TK-10 renal. Also, the TGI in the assay on U251 CNS is 0.335 µM and 1.01 µM; in the assay on UACC-62 melanoma it was 0.0231 µM and 0.0117 µM; in the assay with UO-31 renal it was 0.954 µM and 7.18 µM.
Turning to `O=c1cc/c(=N\Nc2ccccc2)c(=O)/c1=N/Nc1ccccc1`, the GI50 in the assay with A498 renal, in the assay on A549 NSCLC, with ACHN renal, with OVCAR-8 ovarian, in the assay with SR leukemia and with TK-10 renal was more than 50 µM in each case. The GI50 in the assay on U251 CNS, in the assay on UACC-62 melanoma and with UO-31 renal was more than 50 µM in each case. Moreover, the TGI in the assay with A498 renal, in the assay on A549 NSCLC, with ACHN renal, in the assay with OVCAR-8 ovarian, in the assay with SR leukemia and in the assay with TK-10 renal was more than 50 µM in each case. The TGI with U251 CNS, in the assay with UACC-62 melanoma and with UO-31 renal was more than 50 µM throughout.
With `C/C(=N\NC(N)=S)c1ccc2c(c1)OCO2`, the TGI with A498 renal, in the assay on A549 NSCLC, with ACHN renal, in the assay on OVCAR-8 ovarian, with SR leukemia and in the assay with TK-10 renal was more than 100 µM each time. For the same compound, the TGI in the assay on U251 CNS, in the assay on UACC-62 melanoma and in the assay on UO-31 renal was more than 100 µM each time.
For `CC(=O)/C=C1/c2ccccc2N(C(C)=O)C1O` (stereo not drawn), the TGI in the assay on A498 renal, in the assay on A549 NSCLC, in the assay on ACHN renal, with OVCAR-8 ovarian, with SR leukemia and in the assay with U251 CNS was more than 100 µM each time. Besides, the TGI in the assay with UACC-62 melanoma and in the assay on UO-31 renal was more than 100 µM throughout.
In the case of `Cc1cccc(C(C)(C)C)c1NC(=O)CC1C(=O)Nc2ccccc2S1=O` (stereo not drawn), the TGI is more than 100 µM in the assay on A549 NSCLC; more than 100 µM in the assay with ACHN renal; more than 100 µM in the assay with OVCAR-8 ovarian; 87.8 µM with SR leukemia; more than 100 µM in the assay on TK-10 renal; more than 100 µM with U251 CNS. The compound also showed a TGI in the assay with UO-31 renal of more than 100 µM.
`CCc1ccccc1NC(=O)CCc1nc(=S)[nH][nH]1`: the TGI in the assay on A498 renal, in the assay with A549 NSCLC, with ACHN renal, in the assay on OVCAR-8 ovarian, in the assay on SR leukemia and in the assay with TK-10 renal was more than 100 µM in each case. Also, the TGI with U251 CNS, in the assay with UACC-62 melanoma and in the assay with UO-31 renal was more than 100 µM throughout.
For `COc1ccc(C2(CN(C)C)COc3cc(OC)c(OC)cc3C2=O)cc1OC` (stereo not drawn), the TGI in the assay on A498 renal, in the assay on A549 NSCLC, in the assay with ACHN renal, in the assay on OVCAR-8 ovarian, with SR leukemia and in the assay with TK-10 renal was more than 100 µM each time. For the same compound, the TGI in the assay on U251 CNS, in the assay on UACC-62 melanoma and in the assay with UO-31 renal was more than 100 µM throughout.
For the compound `COc1cc2c(cc1OC)-c1c(cnn1C1OC(COC(C)=O)C(OC(C)=O)C(OC(C)=O)C1OC(C)=O)CC2` (stereo not drawn), the TGI with A498 renal is more than 100 µM; in the assay with A549 NSCLC, more than 100 µM; in the assay with ACHN renal it was more than 100 µM; in the assay on OVCAR-8 ovarian it was more than 100 µM; in the assay with SR leukemia, more than 28.7 µM; in the assay with TK-10 renal, more than 100 µM. In addition, the TGI with U251 CNS, in the assay on UACC-62 melanoma and in the assay with UO-31 renal was more than 100 µM each time.
For `O=[N+]([O-])c1ccc(Cc2nc3ccccc3s2)cc1`, the TGI in the assay with A498 renal, with A549 NSCLC, in the assay with ACHN renal, in the assay with OVCAR-8 ovarian, in the assay on SR leukemia and in the assay with TK-10 renal was more than 100 µM each time. The TGI in the assay on U251 CNS, in the assay on UACC-62 melanoma and in the assay on UO-31 renal was more than 100 µM throughout.
Consider `O=C(CC(=O)Nc1ccc(Cl)cc1)NNCC(=O)Nc1nc(-c2ccccc2)cs1`, for which the TGI in the assay with A549 NSCLC, with OVCAR-8 ovarian, with TK-10 renal, in the assay on U251 CNS and in the assay on UACC-62 melanoma was more than 100 µM each time.
With `N=C(c1ccccc1)N1CCCCC1`, the TGI with A549 NSCLC, in the assay on OVCAR-8 ovarian, with SR leukemia, in the assay with TK-10 renal, with U251 CNS and with UO-31 renal was more than 100 µM throughout.
As for `Cc1ccccc1C(C#N)/C(=N/NC(=O)c1cc2ccccc2cc1O)C(=O)Nc1cccc(Cl)c1` (stereo not drawn), the TGI in the assay with A498 renal is more than 100 µM; with A549 NSCLC, more than 100 µM; in the assay with ACHN renal, more than 100 µM; in the assay on OVCAR-8 ovarian, more than 100 µM; in the assay on SR leukemia, 84.5 µM; in the assay with TK-10 renal, more than 100 µM. For the same compound, the TGI was more than 100 µM in the assay with U251 CNS, 18.1 µM in the assay with UACC-62 melanoma and 8.4 µM in the assay with UO-31 renal.
Take `CC(C)=CC(=O)Cc1nc2ccccc2[nH]c1=O`: the TGI in the assay on A498 renal, with A549 NSCLC, in the assay with ACHN renal, in the assay with SR leukemia, with TK-10 renal and in the assay on U251 CNS was more than 100 µM in each case. For the same compound, the TGI with UACC-62 melanoma and with UO-31 renal was more than 100 µM each time.
Turning to `CN1C(c2ccccc2)CC(=Nc2ccccc2)CC1c1ccccc1` (stereo not drawn), the TGI with A549 NSCLC worked out at 44.9 µM; in the assay on OVCAR-8 ovarian, 20.6 µM; in the assay with SR leukemia it was 34.5 µM; with TK-10 renal it was 36.9 µM; with U251 CNS it was 19.6 µM; in the assay on UO-31 renal it was 47.8 µM.
Turning to `CCNC(=O)C(O)C1(O)CCC2[C@@H]3CCC4=CC(=O)C=C[C@]4(C)C3[C@@H](O)C[C@@]21C` (stereo partly drawn), the TGI in the assay with A549 NSCLC, in the assay with ACHN renal, in the assay with OVCAR-8 ovarian, with SR leukemia, in the assay on TK-10 renal and in the assay with U251 CNS was more than 100 µM in each case. Also, the TGI with UACC-62 melanoma and in the assay with UO-31 renal was more than 100 µM throughout.
For `O=[N+]([O-])c1cccc(-c2nc3sccn3c2-c2ccnc(NCCCNS(=O)(=O)c3ccc(F)cc3)n2)c1`, the GI50 with A498 renal is 1.87 µM; with A549 NSCLC, 2.73 µM; in the assay on ACHN renal, 2.19 µM; in the assay with OVCAR-8 ovarian it was 1.74 µM; in the assay on SR leukemia, 2.53 µM; in the assay with TK-10 renal, 4.34 µM. Further, the GI50 was 3.73 µM with U251 CNS, 1.2 µM in the assay with UACC-62 melanoma and 1.4 µM in the assay on UO-31 renal. Moreover, the TGI was more than 100 µM in the assay with A498 renal; more than 100 µM with A549 NSCLC; 10.8 µM with ACHN renal; 22.2 µM in the assay with OVCAR-8 ovarian; more than 100 µM in the assay on SR leukemia; more than 100 µM in the assay on TK-10 renal. Besides, the TGI in the assay with U251 CNS was more than 100 µM; with UACC-62 melanoma it was 4.21 µM; in the assay with UO-31 renal it was 8.39 µM.
For `COc1ccccc1NC(=O)CC(=O)n1nc(C)c(N=Nc2ccccc2F)c1C`, the TGI in the assay on A498 renal, in the assay on A549 NSCLC, with ACHN renal, in the assay with OVCAR-8 ovarian, in the assay with SR leukemia and with TK-10 renal was more than 100 µM each time. For the same compound, the TGI in the assay with U251 CNS, in the assay on UACC-62 melanoma and in the assay with UO-31 renal was more than 100 µM throughout.
In the case of `COC(=O)c1nc(-c2ccc(Cl)c(Cl)c2)nc2ccccc12`, the TGI in the assay with A498 renal is more than 73.7 µM; in the assay with A549 NSCLC, more than 100 µM; with ACHN renal it was more than 100 µM; with OVCAR-8 ovarian, more than 100 µM; in the assay on TK-10 renal, more than 83.5 µM; with U251 CNS it was more than 100 µM. Also, the TGI with UACC-62 melanoma and in the assay on UO-31 renal was more than 100 µM each time.
Turning to `COc1ccc2[nH]c3c(cnn4cnnc34)c2c1`, the TGI with A549 NSCLC, in the assay on ACHN renal, with OVCAR-8 ovarian, in the assay on TK-10 renal, in the assay on U251 CNS and in the assay on UACC-62 melanoma was more than 100 µM in each case. The compound also returned a TGI in the assay with UO-31 renal of more than 100 µM.
Regarding `Cc1cc2c(C(C)C)c(O)c(O)c3coc(/c1=c1/c(C)cc4c(C(C)C)c(=O)c(=O)c5coc1c45)c32`, the TGI in the assay with A498 renal stood at 24.8 µM; in the assay with A549 NSCLC it was 15.6 µM; in the assay on ACHN renal, 12.3 µM; with OVCAR-8 ovarian, 17.1 µM; in the assay with TK-10 renal it was 27.8 µM; with U251 CNS, 14.3 µM. Besides, the TGI in the assay with UACC-62 melanoma was 13.5 µM; in the assay on UO-31 renal, 31.1 µM.

These data come from PubChem BioAssay (NCI).
